{"source": "patent US5470866A", "about": "“Method for the conversion of cephalomannine to taxol and for the preparation of n-acyl analogs of taxol” (Virginia Polytechnic Institute and State University, priority 1994, dated 1995)", "key": {"[1]": {"tested_on": "P-388 lymphocytic leukemia cells", "assay": "cell culture assay using P-388 lymphocytic leukemia cells (cytotoxicity of N-debenzoyl-N-acyltaxols)", "format": "cell-based", "settings": "Mus musculus, P388; P-388 cell culture; taxol reference; read-out: Absolute ED50", "protocol": "For details of the cell culture assay, see Abbott, B. J., \"Protocol 14 of Instruction 275,\" National Cancer Institute, National Institutes Of Health, Jan. 24, 1978. N-acyltaxol analogs are important analogs of taxol for anticancer treatment. The present invention provides a simple way of preparing such analogs from taxol or cephalomannine without removing the C-13 side-chain.\n*Cytotoxicity is recorded as ED50 value relative to taxol determined\nin the same assay. Absolute ED50 of taxol is approximately 0.03"}, "[2]": {"settings": "in some assays; reported in literature; cited from earlier work"}}, "data": [{"molecule": "CC(=O)O[C@H]1C(=O)[C@@]2(C)[C@H]([C@H](OC(=O)c3ccccc3)[C@]3(O)C[C@H](OC(=O)[C@H](O)[C@@H](NC(=O)c4ccccc4)c4ccccc4)C(C)=C1C3(C)C)[C@]1(OC(C)=O)CO[C@@H]1C[C@@H]2O", "note": "[taxol]", "values": [{"measurement": "IC50", "setting": "[1]", "value": "~0.03", "unit": "µg/mL"}]}, {"molecule": "CC(=O)O[C@@]12CO[C@@H]1C[C@H](O)[C@@]1(C)C(=O)[C@H](O)C3=C(C)[C@@H](OC(=O)[C@H](O)[C@@H](NC(=O)OC(C)(C)C)c4ccccc4)C[C@@](O)([C@@H](OC(=O)c4ccccc4)[C@H]21)C3(C)C", "note": "[taxotere]", "values": [{"measurement": "activity relative to taxol", "setting": "[2]", "value": "approximately twice as active as taxol"}]}]}
